One assay concerns the target cGAS (Homo sapiens (Human), UniProt Q8N884). The assay can be described thus: Human cGAS enzyme assay (hcGAS IC50, in vitro), cGAMP formation by RapidFire MS.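 Also: enzyme activated by 45 bp dsDNA with GTP and ATP (30 µM each), 60 min compound pre-incubation then 90 min reaction, cGAMP relative to cyclic-di-GMP internal standard, 8-point dilutions up to 10 µM.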 Type of assay: biochemical. As to conditions: biochemical (in vitro) cGAS inhibition.
In assay [1] the test system is cellular cGAS activity in dsDNA-stimulated human whole blood. The assay can be described thus: Human whole blood assay (hWB IC50): IFNα2α production after dsDNA transfection. Type of assay: cell-based. As to conditions: inhibition of IFN induction in dsDNA-stimulated human whole blood. The gist of the method:
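Citrated blood from healthy donors preincubated 60 min at room temperature with compound (top 10 µM, ~1:5 steps, 0.1% DMSO), then transfected with dsDNA/Fugene and incubated 22 h at 37 °C. Plasma IFNα2α measured by MSD immunoassay; IC50 from 4-parameter fit of % control (stimulated vs unstimulated).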

For assay [2], the system named is cellular cGAS activity in baculovirus-stimulated THP1-Dual cells (IRF dependent Lucia luciferase reporter). The assay can be described thus: Human cGAS cell assay: inhibition of IFN induction in virus-stimulated THP1 cells (THP1(vir) IC50). Type of assay: cell-based. As to conditions: Homo sapiens, THP1-Dual; inhibition of IFN induction in virus-stimulated THP1 cells; read-out: THP1(vir) IC50. The gist of the method:
(§1)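 THP1-Dual cells with IRF-dependent Lucia luciferase reporter, stimulated by empty baculovirus (dsDNA delivery activating cGAS) or, for the counter assay, directly by cGAMP. 5000 cells/well, 8 concentrations from 10 μM top, 1% DMSO, 18 h at 37 °C; luminescence read, IC50 by 4-parameter logistic fit versus unstimulated low control.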

For assay [3], the system named is cGAMP-stimulated THP1-Dual cells (pathway directly downstream of cGAS). The assay can be described thus: cGAMP stimulated counter cell assay: inhibition of IFN induction in cGAMP-stimulated THP1 cells (THP1(cGAMP) IC50). The note with it: for IC50: Homo sapiens, THP1-Dual, inhibition of IFN induction in cGAMP-stimulated THP1 cells, read-out: THP1(cGAMP) IC50 (converted); for Ratio THP1(cGAMP) IC50 / THP1(vir) IC50: selectivity for cGAS inhibition. Type of assay: cell-based, human. In short, it runs like this: as §1

Each structure is given as a SMILES string. Where only a bound is given, the exact number is not on record here.

Sequence of cGAS (Q8N884 whole entry): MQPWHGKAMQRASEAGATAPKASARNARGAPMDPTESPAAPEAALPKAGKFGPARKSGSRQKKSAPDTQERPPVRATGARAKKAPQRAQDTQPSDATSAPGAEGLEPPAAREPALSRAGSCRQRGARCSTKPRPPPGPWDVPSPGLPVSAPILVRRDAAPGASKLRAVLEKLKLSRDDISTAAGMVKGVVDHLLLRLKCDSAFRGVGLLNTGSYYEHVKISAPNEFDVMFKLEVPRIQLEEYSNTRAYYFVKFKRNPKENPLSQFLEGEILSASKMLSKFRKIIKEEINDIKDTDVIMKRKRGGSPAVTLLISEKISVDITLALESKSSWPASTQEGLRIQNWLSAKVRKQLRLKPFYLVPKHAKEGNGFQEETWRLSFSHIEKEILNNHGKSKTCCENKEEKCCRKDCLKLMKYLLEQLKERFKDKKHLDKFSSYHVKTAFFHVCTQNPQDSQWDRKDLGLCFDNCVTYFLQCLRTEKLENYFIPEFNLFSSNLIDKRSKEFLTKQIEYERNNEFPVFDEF

By IC50 is commonly meant the concentration that gives 50% inhibition. Turning to `C[C@H]1COCCN1c1cc(-c2ccncc2)cnc1O[C@H]1C[C@@H](C(=O)O)N(c2nc(C(F)(F)F)nc3c2oc2ccccc23)C1` [Example 3.01, (2S,4S)-4-({5-[(3S)-3-methylmorpholin-4-yl]-[3,4′-bipyridin]-6-yl}oxy)-1-[4-(trifluoromethyl)-8-oxa-3,5-diazatricyclo[7.4.0.0^2,7]trideca-1(9),2(7),3,5,10,12-hexaen-6-yl]pyrrolidine-2-carboxylic acid], the IC50 against cGAS was 9 nM; in assay [1] it was 1610 nM; in assay [2] it was 982 nM; in assay [3] it was over 16600 nM. The “Ratio THP1(cGAMP) IC50 / THP1(vir) IC50” value in assay [3] was over 17.

In the case of `CCn1cc(-c2cnc(O[C@H]3C[C@@H](C(=O)O)N(c4nc(C(F)(F)F)nc5c4oc4ccccc45)C3)c(N3CCOC[C@@H]3C)c2)cn1` [Example 3.07], the IC50 against cGAS is 17 nM; in assay [1] it was 1620 nM; in assay [2] it was 748 nM; in assay [3], 12300 nM. Besides, the “Ratio THP1(cGAMP) IC50 / THP1(vir) IC50” value in assay [3] was found to be 16.

Regarding `C#Cc1cnc(O[C@H]2C[C@@H](C(=O)O)N(c3nc(C(F)F)nc4c3oc3ccccc34)C2)c(N2CCC3(C[C@@H]2C)N=N3)c1` [Example 1.20], the IC50 is 2 nM against cGAS, 670 nM in assay [1], 796 nM in assay [2] and over 16600 nM in assay [3]. In addition, in assay [3], the “Ratio THP1(cGAMP) IC50 / THP1(vir) IC50” value is given as over 21.

Take `C[C@@H]1N(c2cc(-c3cccc(C(N)=O)c3)cnc2O[C@H]2C[C@@H](C(=O)O)N(c3nc(C(F)F)nc4c3oc3ccccc34)C2)CCOC12COC2` [Example 3.24]: the IC50 was 6 nM against cGAS, 322 nM in assay [1], 57 nM in assay [2] and 19200 nM in assay [3]. Also, the “Ratio THP1(cGAMP) IC50 / THP1(vir) IC50” value in assay [3] is reported as 336.

As for `C#Cc1cnc(O[C@H]2C[C@@H](C(=O)O)N(c3nc(C(F)(F)C(F)(F)F)nc4c3oc3ccccc34)C2)c(N2CCOC3(COC3)[C@@H]2C)c1` [Example 1.17], the IC50 against cGAS is 17 nM; in assay [1], 305 nM; in assay [2], 154 nM; in assay [3] it was over 16600 nM. For the same molecule, the “Ratio THP1(cGAMP) IC50 / THP1(vir) IC50” value in assay [3] is reported as over 108.

As to `C#Cc1cnc(O[C@H]2C[C@@H](C(=O)O)N(c3nc(C)nc4c3oc3cc(Cl)ccc34)C2)c(N2CCOC3(COC3)[C@@H]2C)c1` [Example 2.07], the IC50 against cGAS is 3 nM; in assay [1], 28 nM; in assay [2] it was 14 nM; in assay [3] it was 14500 nM. In assay [3], the “Ratio THP1(cGAMP) IC50 / THP1(vir) IC50” value is 1005.

In the case of `CC1(C#N)CN(c2cc(Cl)cnc2O[C@H]2C[C@@H](C(=O)O)N(c3nc(C(F)(F)F)nc4c3oc3ccccc34)C2)CCO1` (some centres unmarked) [Example 1.03], the IC50 against cGAS was 7 nM; in assay [1] it was 8450 nM; in assay [2], 399 nM; in assay [3] it was 15100 nM. In addition, in assay [3], the “Ratio THP1(cGAMP) IC50 / THP1(vir) IC50” value came to 38.

Take `CC#Cc1cnc(O[C@H]2C[C@@H](C(=O)O)N(c3nc(C(F)(F)F)nc4c3oc3ccccc34)C2)c(N2CCOC3(COC3)[C@@H]2C)c1` [Example 6.01]: the IC50 was 10 nM on cGAS, 25 nM in assay [1], under 5 nM in assay [2] and 20500 nM in assay [3]. The “Ratio THP1(cGAMP) IC50 / THP1(vir) IC50” value in assay [3] is on record as 3801.

As to `C#Cc1cnc(O[C@H]2C[C@@H](C(=O)O)N(c3nc(C(F)(F)F)nc4c3oc3ccccc34)C2)c(N2CCOC3(COC3)[C@@H]2C)c1` [Example 1.12], the IC50 against cGAS is 3 nM; in assay [1] it was 15 nM; in assay [2] it was 7 nM; in assay [3], 11900 nM. Moreover, in assay [3], the “Ratio THP1(cGAMP) IC50 / THP1(vir) IC50” value worked out at 1769.

Turning to `CNc1cccc(-c2cnc(O[C@H]3C[C@@H](C(=O)O)N(c4nc(C(F)(F)F)nc5c4oc4ccccc45)C3)c(N3CCOC4(COC4)[C@@H]3C)c2)n1` [Example 7.03], the IC50 at cGAS was 21 nM; in assay [1], 27 nM; in assay [2] it was 2 nM; in assay [3], over 10000 nM. Moreover, in assay [3], the “Ratio THP1(cGAMP) IC50 / THP1(vir) IC50” value worked out at 4151.

The values above are taken from patent US20240342186A1, “PYRIDINE DERIVATIVES WITH N-LINKED CYCLIC SUBSTITUENTS AS cGAS INHIBITORS” (Boehringer Ingelheim International GmbH, priority 2021, published 2024).
